Assay results taken from patent US5004756A, “Anti-cancer activity potentiator” (priority 1988, dated 1991).
In brackets after ≈: the same amount, converted by molar mass. *1 amine or outer side, *2 acyl side, *3 side chain or, on linkers, in order; H or OH if unused. Where a SMILES comes first, the peptide text is derived from it. Bridges are numbered along the chain shown (N, C = ends). Roman numbers before positions name the chains, in order. [ ]: non-standard residue; d: D form. Actinocin(9to1) = Cc1c2oc3c(C)ccc(C(=O)[*:1])c3nc-2c(C(=O)[*:2])c(N)c1=O; NMeV = CN[C@H](C(=O)O)C(C)C; Sar = CNCC(=O)O

Key:
V79/S [1] = assay: Colony formation (proliferation) inhibition, sensitive Chinese hamster cells (A-I Part 1); type: cell-based
Procedure: (§1) Sensitive cell line V79/S and ADM-resistant cell line V79/ADM of the Chinese hamster were used, and sensitive cell line PLC/S and cholchicin-resistant cell line PLC/Col, as human hepatoma cells.
(§2) The sensitive cell lines (400 cells) or the resistant cell lines (600 cells) were each incubated for 24 hours in 10 ml of Eagle's MEM medium containing 10% bovine serum. Each of the drugs indicated in Table 1 below was dissolved in ethanol, and 50 microliters of the resulting solution was added to the medium. The incubation was further carried out for 9 days. The concentration of the drug which inhibits 50% of the colony formation (proliferation) of the tumor cells was calculated.
(§3) V79/S and V79/ADM were tested by using all of the drugs described above, but PLC/S and PLC/Col were tested by using only the malate of formula (I), adriamycin and peplomycin.
(§4) The concentrations (micrograms/ml) required to inhibit 50% of the proliferation of the tumor cells, expressed by IC50, are shown in Table 1.

V79/ADM [2] = assay: Colony formation (proliferation) inhibition, ADM-resistant Chinese hamster cells (A-I Part 1); type: cell-based
Procedure: as §1, §2, §3, §4

[3] = system: clinically isolated human cancer cells (lung adenocarcinoma, lung squamous cell carcinoma, osteosarcoma, ovarian carcinoma); assay: Anti-tumor activity on clinically isolated human cancer cells, morphological changes (A-I Part 2); type: cell-based
Procedure: Lung adenocarcinoma, lung squamous cell carcinoma, osteosarcoma and ovarian carcinoma were selected as clinically isolated human cancer cells, and the anti-tumor activities of various drugs were examined. Specifically, various tumor tissues were individually cut to thin pieces by a razor, and by washing in saline by using a 1 mm mesh, the connective tissues were removed. The resulting solution was centrifuged at 1000 rpm for 1 minute to remove necrotizing substances. Washing with saline gave tumor cells.
They were incubated at 37° for 4 to 8 hours. Thereafter, pumping was carried out to disperse the tissue pieces. Then, centrifugation at 1000 rpm for 5 minutes, cell coating and Giemsa staining were performed. The anti-tumor activity of each drug was examined on the basis of observation of the morphological changes of the tumor cells under a microscope.
The experiment was conducted on two examples of each tumor cells (total 8 examples).

V79/S [4] = assay: Anti-cancer activity potentiating action, colony formation, V79/S parent cells (A-III); type: cell-based, Chinese hamster; conditions: for IC50: Cricetulus griseus
Procedure: (§5) The anti-cancer activity potentiating action of the malate of formula (I) was examined using Chinese hamster cells (sensitive cell line V79/S and ADM-resistant cell line V79/ADM), human hepatoma cells (sensitive cell line PLC/S and colchicin-resistant cell line PLC/Col) and mouse leukemia cells (sensitive cell line L5178Y/S) and aclarubicin-resistant cell line L5178Y/ACR).
(§6) Of these tumor cells, the sensitive cells (400 cells) and the resistant cells (600 cells) were each incubated in 10 ml of Eagle's MEM medium containing 10% bovine serum for 24 hours, and then each of the test drugs indicated in Table 6 was added. Thereafter, the incubation was carried out for 9 days. The concentration (IC50 : micrograms/ml) of the test drug required to inhibit 50% of the colony formation (proliferation) of the tumor cells was calculated.
(§7) (A) Chinese hamster V79 cells
(§8) As anti-cancer agents, there were used adriamycin (ADM), aclarubicin (ACR), actinomycin D (ACD), 5-fluorouracil (5-FU), cytarabin (Ara-C), cisplatin (CDDP), methotrexate (MTX), mitomycin C (MMC), nimustine (ACNU), mitoxantrone, etoposide ([…]), vincristine (VCR), bleomycin (BLM) and peplomycin (PEP). For the sensitive cells, the anti-cancer agents were used in combination with 10 micrograms/ml of the malate of formula (I), and for the resistant cells, the anti-cancer agents were used in combination with the malate of formula (I) 3 micrograms/ml, 5 micrograms/ml, and 10 micrograms/ ml.

V79/ADM [5] = assay: Anti-cancer activity potentiating action, colony formation, V79/ADM resistant cells (A-III); type: cell-based, Chinese hamster; conditions: for IC50: Cricetulus griseus
Procedure: as §5, §6, §7, §8

[6] = system: P388 mouse leukemia cells; assay: Life prolongation of BDF1 mice with P388 leukemia, combination with CPA; type: in vivo, mouse (male BDF1); conditions: for Number of surviving animals: 30 days
Procedure: Male BDF1 mice having a body weight of 20±2 g, 6 per group, were used. P388 mouse leukemia cells (one week after transplantation) as tumor cells were washed with 0.9% saline and suspended in saline so that the number of the cells reached 5×10^6 /m. The suspension was intraperitoneally administered to the mice at a rate of 0.2 ml (10^6 cells) per mouse.
Twenty-four hours after the transplantation of tumor cells, the malate of formula (I) and cyclophosphamide ([…]) were successively administered intraperitoneally once to the mice, and the life prolongation rate of the mice in each group was determined.
The malate of formula (I) was used after suspending it and Tween 80 at a ratio of 1:5 to saline, and this suspension was diluted with a solution of Tween 80 in the same concentration. CPA, on the other hand, was used as a solution in saline.
CPA (50 mg/kg and 100 mg/kg) and the malate of formula (I) (10 mg/kg and 20 mg/kg) were administered singly or in combination, and the life prolongation rate was determined.

[7] = read-out: IC50, anti-cancer agent alone
[8] = read-out: IC50 in combination with compound (I)
[9] = V79/S, with compound (I) 10 μg/ml
[10] = V79/ADM, with compound (I) 5 μg/ml
[11] = V79/S, alone, Table 6, read-out: IC50, anti-cancer agent alone
[12] = V79/S, with compound (I) 10 μg/ml, read-out: IC50 in combination with compound (I)
[13] = V79/ADM, alone, Table 6, read-out: IC50, anti-cancer agent alone

Cc1c2oc3c(C)ccc(C(=O)N[C@@H]4C(=O)N[C@H](C(C)C)C(=O)N5CCC[C@H]5C(=O)N(C)CC(=O)N(C)[C@@H](C(C)C)C(=O)O[C@@H]4C)c3nc-2c(C(=O)N[C@@H]2C(=O)N[C@H](C(C)C)C(=O)N3CCC[C@H]3C(=O)N(C)CC(=O)N(C)[C@@H](C(C)C)C(=O)O[C@@H]2C)c(N)c1=O [ACD, actinomycin D] (I: T[dV]P[Sar][NMeV] / II: T[dV]P[Sar][NMeV]; ester I:1-I:C, II:1-II:C; linker I:N-II:N via Actinocin(9to1))
IC50 (V79/S [1]; Cricetulus griseus, 216 h): 0.017 µg/mL (≈ 0.0135 µM)
IC50 (V79/ADM [2]; Cricetulus griseus, 216 h): 0.28 µg/mL (≈ 0.223 µM)
Efficacy ratio (rated significant by Fisher's test) ([3]; 0.01 μg/ml): 0/8
IC50 (V79/S [4]; [7]): 0.017 µg/mL
IC50 (V79/S [4]; [8]): 0.0032 µg/mL
Potentiation activity (V79/S [4]; [9]): 5.3 times
IC50 (V79/ADM [5]; [7]): 0.28 µg/mL
IC50 (V79/ADM [5]; [8]): 0.0063 µg/mL
Potentiation activity (V79/ADM [5]; V79/ADM, with compound (I) 10 μg/ml): 44.4 times

Cc1ncc(CNC(=O)N(CCCl)N=O)c(N)n1 [ACNU, nimustine]
Efficacy ratio (rated significant by Fisher's test) ([3]; 2.0 μg/ml): 3/8
IC50 (V79/S [4]; [7]): 7.6 µg/mL
IC50 (V79/S [4]; [8]): 5.4 µg/mL
Potentiation activity (V79/S [4]; [9]): 1.4 times
IC50 (V79/ADM [5]; [7]): 10 µg/mL
IC50 (V79/ADM [5]; [8]): 3.1 µg/mL
Potentiation activity (V79/ADM [5]; [10]): 3.20 times

Nc1ccn([C@@H]2O[C@H](CO)[C@@H](O)[C@@H]2O)c(=O)n1 [Ara-C, cytarabin]
IC50 (V79/S [4]; [11]): 0.076 µM
IC50 (V79/S [4]; [12]): 0.054 µM
Potentiation activity (V79/S [4]; [9]): 1.4 times
IC50 (V79/ADM [5]; [13]): 0.22 µM
IC50 (V79/ADM [5]; V79/ADM, with compound (I) 5 μg/ml, read-out: IC50 in combination with compound (I)): 0.035 µM
Potentiation activity (V79/ADM [5]; [10]): 6.3 times

[NH2][Pt]([NH2])([Cl])[Cl] [CDDP, cisplatin]
IC50 (V79/S [1]; V79/S, 9 days, Table 1): 0.37 µg/mL
IC50 (V79/ADM [2]; V79/ADM, 9 days, Table 1): 0.32 µg/mL
Efficacy ratio (rated significant by Fisher's test) ([3]; 0.5 μg/ml): 4/8
IC50, anti-cancer agent alone (V79/S [4]; V79/S, alone, Table 6): 0.37 µg/mL
IC50 in combination with compound (I) (V79/S [4]; [9]): 0.27 µg/mL
Potentiation activity (V79/S [4]; [9]): 1.4 times
IC50, anti-cancer agent alone (V79/ADM [5]; V79/ADM, alone, Table 6): 0.32 µg/mL
IC50 in combination with compound (I) (V79/ADM [5]; [10]): 0.13 µg/mL
Potentiation activity (V79/ADM [5]; [10]): 2.5 times

O=P1(N(CCCl)CCCl)NCCCO1 (centres unmarked) [CPA, cyclophosphamide]
MST (medium survival time) ([6]; CPA 50 mg/kg i.p.): 20.3
T/C vs control ([6]; CPA 50 mg/kg i.p.): 201%
T/C vs CPA alone ([6]; CPA 50 mg/kg i.p. (reference group)): 100%
Number of surviving animals ([6]; CPA 50 mg/kg i.p.): 0/6
MST (medium survival time) ([6]; CPA 100 mg/kg i.p.): 24.0
T/C vs control ([6]; CPA 100 mg/kg i.p.): 238%
T/C vs CPA alone ([6]; CPA 100 mg/kg i.p. (reference group)): 100%
Number of surviving animals ([6]; CPA 100 mg/kg i.p.): 1/6

O=P1(N(CCCl)CCCl)NCCCO1 (centres unmarked) [CPM]
Efficacy ratio (rated significant by Fisher's test) ([3]; 10 μg/ml): 3/8

COC(COC(N)=O)C1=C(N2CC2)C(=O)C(C)=C(N2CC2)C1=O (centres unmarked) [CQ, carboquone]
Efficacy ratio (rated significant by Fisher's test) ([3]; 0.1 μg/ml): 1/8

COc1cc([C@@H]2c3cc4c(cc3[C@@H](O[C@@H]3O[C@@H]5CO[C@@H](C)O[C@H]5[C@H](O)[C@H]3O)[C@H]3COC(=O)[C@H]23)OCO4)cc(OC)c1O [Etoposide, etoposide]
IC50 (V79/S [4]; [11]): 0.27 µg/mL
IC50 (V79/S [4]; [12]): 0.098 µg/mL
Potentiation activity (V79/S [4]; [9]): 2.8 times
IC50 (V79/ADM [5]; [13]): > 20 µg/mL
IC50 (V79/ADM [5]; V79/ADM, with compound (I) 3 μg/ml, read-out: IC50 in combination with compound (I)): 7.4 µg/mL
Potentiation activity (V79/ADM [5]; V79/ADM, with compound (I) 3 μg/ml): 2.7 times
